Legend:
[1] = tested on: osteosarcoma Saos-2 cells; test: MTT proliferation assay, 96 h; format: cell-based, human; details: for IC50: SAOS-2, proliferation, 10% FBS, read-out: IC50 (µM ± SD) Saos-2
Protocol: (§1) One of the features specific totumor cells is the unlimited potential for proliferation. […] To this end, the assay conditions were established suchthat they encourage the proliferation of OS cells, i.e., the cell cultures at low density were incubated with compounds diluted in the growth medium (10% FBS) for an extended time of 96 h. Additionally, cisplatin, i.e., a common cytostatic used in osteosarcoma treatment, was included as a positive control in this study. Moreover, since the new generation of anti-cancer compounds is highly desired to be inert (non-cytotoxic) towards normal cells, the influence of compounds 1–7 on the viability of human normal cells (osteoblasts hFOB 1.19 and colon fibroblasts CCD-18Co) was also determined.To this end, the assay conditions were established such that they restrict the proliferation of OS cells and to establish whether the compounds have cytotoxic potential, i.e., the cell cultures were incubated with compounds diluted in the medium with a reduced concentration of FBS (2%) for a shortened time of 24 h. […] However, this activity varied depending on both the types of the compounds and the osteosarcoma cell lines (Table 4).
(§2) The anti-proliferative activity of compounds 1–7 against the HOS and Saos-2 osteosarcoma cells and the viability of the human normal hFOB 1.19 and CCD-18Co cells were screened by means of the MTT method. This method is commonly used to assess cell viability and proliferation or to determine the cytotoxicity of any compounds. It is a reliable method for this purpose because it is based on measurement of the level reduction in MTT dye to formazan byNAD(P)H-dependent oxidoreductase enzymes of metabolically active cells.
(§3) To assess the anti-proliferative activity of compounds 1–7 against the HOS and Saos-2 osteosarcoma cells, 3.0 × 10^4 cells/mLseeded (low density culture) into 96-well plates (Nunc, Roskilde, Denmark) were incubated with each compound at concentrations of 3.125, 6.25, 12.5, 25, 50, 100 and 200 µM prepared in medium with 10% FBS (growth medium) for 96 h. Additionally, cisplatin (Sigma Aldrich), i.e., a common cytostatic used in osteosarcoma treatment, was included as a positive control in this study. It was tested in the same conditions as compounds 1–7. The negative control was constituted by the untreated cells (0 µM). Next, the MTT assay was carried out as described previously.
(§4) The results of these assays were calculated as a percent of the untreated cells (100%; control). Then, the IC50 (concentration resulting in 50% inhibition of proliferation) and CC50 (concentration resulting in a 50% decrease in viability) values were calculated from a non-linear regression (log(inhibitor) vs. normalized response-variable slope) using GraphPad Prism 5.0 (GraphPAD Software Inc., San Diego, CA, USA). The IC50 and CC50 results were presented as themean ± SD of at least three experiments. In the case of the BrdU assay, the results were presented as a percent of untreated cells (100%; control).

osteosarcoma HOS cells = test: MTT proliferation assay, 96 h; format: cell-based, human; details: HOS; for IC50: proliferation, 10% FBS, read-out: IC50 (µM ± SD) HOS
Protocol: as §1, §2, §3, §4

NEP (neprilysin) = target: T1, NEP (neprilysin) (Homo sapiens, UniProt P08473); test: Neutral endopeptidase activity assay (fluorometric); format: biochemical; details: vs control
T1 construct: purchased BioVision, Waltham, MA, USA
T1 sequence (P08473 whole entry): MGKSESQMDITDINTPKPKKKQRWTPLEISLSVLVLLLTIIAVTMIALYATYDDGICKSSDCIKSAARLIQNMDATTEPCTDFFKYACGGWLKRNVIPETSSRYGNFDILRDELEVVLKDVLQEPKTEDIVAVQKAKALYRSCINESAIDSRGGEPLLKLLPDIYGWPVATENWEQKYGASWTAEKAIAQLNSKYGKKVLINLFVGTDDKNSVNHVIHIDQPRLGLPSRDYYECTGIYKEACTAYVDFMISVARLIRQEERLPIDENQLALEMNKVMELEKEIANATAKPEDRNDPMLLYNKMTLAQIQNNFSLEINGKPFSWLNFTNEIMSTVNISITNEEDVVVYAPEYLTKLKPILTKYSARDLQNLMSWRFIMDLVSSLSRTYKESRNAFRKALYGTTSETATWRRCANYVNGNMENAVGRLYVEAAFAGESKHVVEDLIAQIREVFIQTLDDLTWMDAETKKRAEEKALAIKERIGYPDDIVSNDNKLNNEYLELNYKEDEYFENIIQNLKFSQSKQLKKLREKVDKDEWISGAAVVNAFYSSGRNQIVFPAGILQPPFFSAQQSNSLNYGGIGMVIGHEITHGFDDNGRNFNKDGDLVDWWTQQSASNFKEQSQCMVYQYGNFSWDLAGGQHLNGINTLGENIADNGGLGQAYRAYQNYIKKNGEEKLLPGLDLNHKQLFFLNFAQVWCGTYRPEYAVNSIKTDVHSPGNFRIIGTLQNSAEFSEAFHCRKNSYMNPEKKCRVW
Protocol: The NEP activity in the presence of compounds 4 and 6 was determined using the Neprilysin Activity Assay Kit (BioVision, Waltham, MA, USA) according to the manufacturer’s instructions. The measurement is based on the ability of active neprilysin to cleave a synthetic substrate (Abz-based peptide) to release a fluorophore, which can be easily quantified using a fluorescence microplate reader. Briefly, pure neprilysin (5µLof stock solution) was incubated with solutions of the tested compounds (at least 4 concentrations in the range of 0.01–50 µM) for 10 min at 37 °C. The reaction was started by adding the substrate solution, and the final sample volume was 100µL. Fluorescence was measured (Ex/Em = 330/430nm) in the kinetic mode at 37 °C for 1–2 h. The same procedure was used to measure the control and background sample. Thiorphan was used as a reference NEP inhibitor. NEP activity was determined with the prepared Abz standard curve and expressed in µU/mL. The experiments were performed at least in triplicates, and the graphs represent mean ±SD values.

Saos-2 cells = test: Migration, wound and transwell assays; format: cell-based, human; details: Saos-2, 24 h
Protocol: (§5) The migration of the HOS and Saos-2 cells was examined using the wound and transwell assays. The wound assay was performed in plastic plates (3-cm diameter, Nunc), in which the osteosarcoma cells were seeded at a density of 3.0 × 10^5 cells/mL. The assay was performed as described previously. Briefly, confluent cell cultures (with wounds) were treated with compounds 4 and 6 at concentrations of 12.5, 25, 50 µM and 20, 40, 80 µM as well as 15, 30, 60 µM and 21.25, 42.5, 85 µM for 24 h, respectively. The solutions of the compounds were prepared in a medium with 2% FBS. The control was constituted by the untreated cells (0 µM). To determine the migratory activity of the cells, the width of the wounds (at 0 and 24 h after incubation) was measured, and photos were taken using an inverted microscope Olympus CKX41 equipped with Image Processing (CellSense) software (Olympus, Tokyo, Japan). The results were expressed as a percentage of wound closure calculated using the following formula: ((width of wound at 0h—width of wound after 24h)/width of wound at 0h) × 100%.
(§6) The transwell migration assay was performed using inserts equipped with a membrane with 8 µm pore size in 24-well plates (Corning, Durham, NC, USA). To this end, the osteosarcoma cells (1 × 10^6 cells/mL) were suspended in a medium supplemented with 0.5% FBS and compounds 4 or 6 at the same concentrations as in the wound assay. The cells were added to the top chambers. The bottom chambers were filled with an appropriate medium supplemented with 10% FBS. After 24 h of incubation, the number of osteosarcoma cells migrating to the lower surface of the insert membrane was quantified using Calcein AM (Sigma Aldrich), which releases the fluorophore after intracellular degradation. The fluorescence was measured by means of a Perkin Elmer Victor^TM plate reader (Thermo Fisher Scientific, Rockford, IL, USA). The cell migratory activity after the treatment with compounds 4 and 6 was calculated as a percentage of invading cells in comparison with the number of invading untreated cells (100%; control).

HOS cells = test: Migration, wound and transwell assays; format: cell-based, human; details: 24 h; for decrease of migration: wound and transwell assays
Protocol: as §5, §6

| IC50 ([1]; Homo sapiens, MTT) [µM] | IC50 (osteosarcoma HOS cells; Homo sapiens) [µM] | inhibition at 0.1 µM (NEP (neprilysin); 0.1 µM) [%] | inhibition at 0.5 µM (NEP (neprilysin); 0.5 µM) [%] | inhibition at 10 µM (NEP (neprilysin); 10 µM) [%] | inhibition at 50 µM (NEP (neprilysin)) [%] | Structure (SMILES) | inhibition at 25 µM ([1]; Homo sapiens, Saos-2, 25 µM, MTT, compared to the control) [%] | lowest concentration that inhibited proliferation statistically significantly ([1]; Saos-2, MTT) [µM] | lowest concentration that inhibited proliferation statistically significantly (osteosarcoma HOS cells) [µM] | inhibition at 6.25 µM (osteosarcoma HOS cells; Homo sapiens, 6.25 µM) [%] | effect on migration (Saos-2 cells) | decrease of migration (HOS cells; 25 µM) | decrease of migration (HOS cells; 50 µM) | depression of migration (HOS cells; 80 µM) |
| --- | --- | --- | --- | --- | --- | --- | --- | --- | --- | --- | --- | --- | --- | --- |
| 59.9 ± 15 | 27.2 ± 7.8 | ~40 | ~50 | ~50 | ~50 | [BH3-][P+](OC(C)C)(OC(C)C)C(Nc1ccc(Br)cc1)c1ccc([N+](=O)[O-])cc1 (stereo not drawn) [Compound 4, [1-(N-p-bromophenylamino)]-1-(p-nitrophenyl)methylphosphonousacid-borane diisopropyl ester] | ~27 | 25 | 6.25 | ~18 | not affected | approx. 19% | approx. 38% |  |
| 86.8 ± 15.7 | 41.5 ± 6.9 |  |  |  | ~30 | [BH3-][P+](OC(C)C)(OC(C)C)C(Nc1ccc(C)cc1)c1ccccc1 (stereo not drawn) [Compound 6, [1-(N-p-tolylamino)]-1-phenylmethylphosphonous acid-borane diisopropyl ester] |  |  |  |  | not affected |  |  | approx. 20% |
